Data set [1] has as its target Casein kinase I isoform epsilon (Homo sapiens, UniProt P49674). Briefly: Inhibition of human CK1 epsilon using casein as substrate after 2 hrs in presence of [33P]-ATP by scintillation counting analysis.
Data set [2] can be described thus: Drug metabolism in human liver microsomes. It counts as ADME, Microsome. The following applies: read-out: Drug metabolism.
In a further data set the target is CYP3A4 (Homo sapiens, UniProt P08684). The data set can be described thus: Drug metabolism in human liver microsomes assessed as CYP3A4-mediated drug metabolism in presence of ketoconazole. To be noted: with ketoconazole, read-out: Drug metabolism. It counts as ADME.
The target of data set [3] is T1, Cytochrome P450 2D6 (Homo sapiens, UniProt P10635). Briefly: Drug metabolism assessed as recombinant CYP2D6 (unknown origin)-mediated 4-(3-(pyridin-4-yl)-6-(4-(pyrrolidin-1-yl)piperidin-1-yl)imidazo[1,2-b]pyridazin-2-yl)phenol formation. It counts as ADME. To be noted: recombinant enzyme.
Data set [4] has as its target T1, Cytochrome P450 2D6. Briefly: Drug metabolism assessed as recombinant CYP2D6 (unknown origin)-mediated 3-(3-(pyridin-4-yl)-6-(4-(pyrrolidin-1-yl)piperidin-1-yl)imidazo[1,2-b]pyridazin-2-yl)phenol formation. The following applies: recombinant enzyme. It counts as ADME.
Data set [5] deals with T1, Cytochrome P450 2D6. Briefly: Drug metabolism assessed as recombinant CYP2D6 (unknown origin)-mediated 3-(3-(pyridin-4-yl)-6-(4-(pyrrolidin-1-yl)-3,4-dihydropyridin-1(2H)-yl)imidazo[1,2-b]pyridazin-2-yl)phenol formation. It counts as ADME. The following applies: recombinant enzyme.

In ChEMBL document CHEMBL4325873, “Decreasing the CYP2D6 contribution to metabolism of a CK1ε inhibitor” (Bioorg Med Chem Lett, 2018) one finds IC50, metabolised and Drug metabolism data, which are given here for ten compounds.

pIC50: −log10 of the molar value.

Sequence of Casein kinase I isoform epsilon (P49674 whole entry, canonical isoform): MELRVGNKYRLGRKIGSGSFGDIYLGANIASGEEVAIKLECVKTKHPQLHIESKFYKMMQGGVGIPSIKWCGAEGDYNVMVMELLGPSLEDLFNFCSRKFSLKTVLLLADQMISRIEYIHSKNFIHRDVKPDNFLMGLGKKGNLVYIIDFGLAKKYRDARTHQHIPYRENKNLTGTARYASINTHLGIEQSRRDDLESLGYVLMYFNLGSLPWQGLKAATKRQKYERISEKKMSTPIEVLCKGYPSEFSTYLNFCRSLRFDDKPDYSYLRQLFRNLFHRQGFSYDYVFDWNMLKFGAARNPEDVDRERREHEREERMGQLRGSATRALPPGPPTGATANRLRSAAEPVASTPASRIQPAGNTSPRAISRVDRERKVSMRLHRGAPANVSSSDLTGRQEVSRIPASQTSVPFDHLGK
Sequence of CYP3A4 (P08684 whole entry): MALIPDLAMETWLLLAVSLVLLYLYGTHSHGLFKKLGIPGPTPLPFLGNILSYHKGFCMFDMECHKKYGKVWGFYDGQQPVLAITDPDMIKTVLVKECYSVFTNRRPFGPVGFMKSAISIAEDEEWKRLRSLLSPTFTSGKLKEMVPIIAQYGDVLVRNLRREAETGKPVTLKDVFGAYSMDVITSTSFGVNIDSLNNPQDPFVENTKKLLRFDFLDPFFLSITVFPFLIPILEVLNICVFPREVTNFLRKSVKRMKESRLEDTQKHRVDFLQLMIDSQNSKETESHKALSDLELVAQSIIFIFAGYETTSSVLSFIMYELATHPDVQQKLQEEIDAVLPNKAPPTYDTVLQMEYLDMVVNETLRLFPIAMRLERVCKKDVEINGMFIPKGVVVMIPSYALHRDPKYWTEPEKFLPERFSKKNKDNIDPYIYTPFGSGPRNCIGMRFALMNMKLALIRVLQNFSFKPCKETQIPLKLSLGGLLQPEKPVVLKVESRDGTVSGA
T1 sequence (P10635 whole entry): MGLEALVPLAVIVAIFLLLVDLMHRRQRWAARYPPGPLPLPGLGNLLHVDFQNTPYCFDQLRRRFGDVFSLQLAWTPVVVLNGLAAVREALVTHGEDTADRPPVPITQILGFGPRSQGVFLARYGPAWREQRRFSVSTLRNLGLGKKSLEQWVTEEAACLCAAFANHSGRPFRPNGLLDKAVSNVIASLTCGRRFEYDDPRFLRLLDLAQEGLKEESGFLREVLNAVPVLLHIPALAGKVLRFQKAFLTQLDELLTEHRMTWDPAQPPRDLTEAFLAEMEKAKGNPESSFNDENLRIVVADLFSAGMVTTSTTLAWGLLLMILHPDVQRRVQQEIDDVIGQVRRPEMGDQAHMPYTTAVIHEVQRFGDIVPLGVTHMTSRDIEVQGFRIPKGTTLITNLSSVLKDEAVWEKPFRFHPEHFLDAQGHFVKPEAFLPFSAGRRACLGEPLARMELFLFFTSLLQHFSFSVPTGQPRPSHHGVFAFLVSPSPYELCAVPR

In the case of `CC1(C)CN(c2ccc3nc(-c4ccccc4)c(-c4ccncc4)n3n2)CCN1`, the pIC50 in data set [1] was 8.34. Moreover, the values for the metabolised (in data set [2]; at CYP3A4) were 57% and 15%, respectively.

Turning to `Fc1ccc(-c2nc3ccc(N4CC5CC4CN5)nn3c2-c2ccncc2)cc1` (stereo not drawn), in data set [1], the pIC50 is 7.80. For the same compound, the metabolised in data set [2] was 18%; at CYP3A4, 0%.

`Cc1cc(C)cc(-c2nc3ccc(N4CCNC(C)(C)C4)nn3c2-c2ccncc2)c1`: the negative logarithm of the IC50 (pIC50) in data set [1] was 8.07. Besides, the metabolised in data set [2] was determined as 13%; on CYP3A4, 5%.

Regarding `C[C@H]1CN(c2ccc3nc(-c4ccccc4)c(-c4ccncc4)n3n2)CCN1`, the pIC50 in data set [1] is 7.86. The metabolised in data set [2] stood at 56%; on CYP3A4, 30%.

In the case of `Fc1ccc(-c2nc3ccc(N4CCC(N5CCCC5)CC4)nn3c2-c2ccncc2)cc1`, the negative-log IC50 (pIC50) in data set [1] is 9.00. In addition, the metabolised came to 20% in data set [2] and 16% at CYP3A4.

Regarding `CC1(C)CN(c2ccc3nc(-c4cc(F)cc(F)c4)c(-c4ccncc4)n3n2)CCN1`, in data set [1], the pIC50 is 7.37. Besides, the metabolised in data set [2] was 25%; on CYP3A4, 15%.

Take `CC1(C)CN(c2ccc3nc(-c4ccc(F)cc4)c(-c4ccncc4)n3n2)CCN1`: the negative logarithm of the IC50 (pIC50) in data set [1] is 7.84. The metabolised in data set [2] is 52%; on CYP3A4, 27%.

As for `C[C@H]1CN(c2ccc3nc(-c4ccc(F)cc4)c(-c4ccncc4)n3n2)CCN1`, the pIC50 in data set [1] is 7.85. Moreover, the results for the metabolised (in data set [2]; at CYP3A4) were 66% and 46%, respectively.

For the compound `c1ccc(-c2nc3ccc(N4CC5CC4CN5)nn3c2-c2ccncc2)cc1` (stereo not drawn), the pIC50 in data set [1] was 7.15. The metabolised turned out to be 18% in data set [2] and 1% on CYP3A4.

For the compound `c1ccc(-c2nc3ccc(N4CCC(N5CCCC5)CC4)nn3c2-c2ccncc2)cc1`, the pIC50 in data set [1] is 7.59. For the same compound, the values for the metabolised (in data set [2]; at CYP3A4) were 38.5% and 24.5%, respectively. Further, the Drug metabolism result on Cytochrome P450 2D6 [3], on Cytochrome P450 2D6 [4] and at Cytochrome P450 2D6 [5] was “Metabolite_Detected” throughout.
